{
  "source": "paper PMC9271048",
  "about": "“Probing strigolactone perception mechanisms with rationally designed small-molecule agonists stimulating germination of root parasitic weeds” (Nature Communications, 2022)",
  "key": {"ShHTL7S95C": {"system": "ShHTL7S95C", "assay": "Hydrolysis reaction analysis with ShHTL7 S95C mutant", "type": "biochemical, Striga hermonthica", "conditions": "Supplementary Fig. 24a", "description": "(§1) Compounds 4a, (R)- and (S)-4a, 4g-i, and rac-GR24 were dissolved in DMSO and prepared as stock solution ([…]) just before use. A 200 μL of the reaction solution consisting of PBS buffer (pH 7.3), 10 μM samples, and 10 μg recombinant ShHTL7 or its mutants was incubated at 30 °C for 30 min; with the reaction solution (200 μL) containing PBS buffer (pH 7.3) and 10 μM samples as the blank control[40],[52]. Subsequently, the reaction was terminated by adding 200 μL of methanol, and then the reaction mixture was shaken for 10 s and centrifuged at 5310 × g for 60 s. The supernatant was filtered and the remaining amount of samples was analyzed by HPLC. The relative percentages of hydrolysis were obtained by using the amount of compounds in blank control as reference.\nSupplementary Fig. 24. a, Relative percentage of hydrolysis of compound 4g by ShHTL7S95A, ShHTL7S95C, and ShHTL7. b, LC-MS analysis of the full-length His-tagged ShHTL7 in native condition. c, LC-MS analysis of the full-length His-tagged ShHTL7S95A in native condition, the mass of 34699 Da (reduction of […] compared with that of ShHTL7) is the peak of ShHTL7S95A. d, LC-MS analysis of full-length His-tagged ShHTL7S95C in native condition, the mass increment of 18 Da […]"}, "ShHTL7": {"molecular_target": "ShHTL7 (Striga hermonthica, UniProt A0A0M3PNA2)", "sequence (A0A0M3PNA2 entry or part of it)": "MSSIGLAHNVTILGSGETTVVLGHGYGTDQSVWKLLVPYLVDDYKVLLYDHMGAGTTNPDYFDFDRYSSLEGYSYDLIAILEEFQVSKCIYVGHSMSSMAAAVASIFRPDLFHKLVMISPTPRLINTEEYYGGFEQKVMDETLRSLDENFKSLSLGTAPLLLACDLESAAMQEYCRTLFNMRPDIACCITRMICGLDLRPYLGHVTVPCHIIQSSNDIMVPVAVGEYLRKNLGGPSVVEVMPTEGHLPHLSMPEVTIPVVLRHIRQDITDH", "design": "method as in PMID 30021834", "conditions": "microscale thermophoresis measurements; cited from earlier work"}, "AtD14-AtMAX2 interaction": {"molecular_target": "T1, AtD14-AtMAX2 interaction (Arabidopsis thaliana, UniProt Q9SQR3)", "T1 construct": "the CDS of ShHTL7 and AtD14 were cloned into yeast expression vector pBrigde; expressed in transfected cells; host or cells: yeast AH109", "assay": "Yeast two-hybrid assay AtD14-AtMAX2", "type": "cell-based", "conditions": "up to 200 μM", "description": "To construct plasmids for yeast two-hybrid assays, the CDS of ShHTL7 and AtD14 were cloned into yeast expression vector pBrigde to generate BD-ShHTL7 and BD-AtD14, and the CDS of ShMAX2, AtMAX2, SMAX1 were cloned into pGADT7 to make Gal4 DNA activation domain (AD) constructs, respectively. Primers used for yeast expression vector construction are listed in Supplementary Table 6. Yeast two-hybrid assays were performed using the Yeastmaker Yeast Transformation System 2 (Clontech). In brief, Yeast AH109 cells were co-transformed with specific bait and prey constructs and coated on selective growth medium SD/-Leu-Trp for 3 days at 30 °C, pick the positive constructs into liquid selective growth medium SD/-Leu-Trp shaking for 36 h at 30 °C. Washed yeast cells three times and diluted, made sure OD600 reached 2.5, then serial 10-fold dilutions of yeast cultures were spotted onto selective growth mediums that were supplemented with different concentrations of rac-GR24 and tested molecules, respectively. All yeast transformants were grown on a selective growth medium at 30 °C for 3 days."}, "ShHTL7H246A": {"system": "ShHTL7H246A", "assay": "Hydrolysis reaction analysis with ShHTL7 H246A mutant", "type": "biochemical, Striga hermonthica", "conditions": "Supplementary Fig. 20a", "description": "as §1\nSupplementary Fig. 20. Effect of key amino acid residues on the hydrolysis of ShHTL7 and binding affinity. a, Relative percentage of hydrolysis of compound (S)-4a by ShHTL7S95A, ShHTL7H246A, and ShHTL7. The error bar indicates SD (n = 3 biologically independent experiments). b, Competitive mutants of ShHTL7 inhibitory activity in YLG assay. Data are the means ± SD (n = 3 biologically independent experiments).\n(1 picture or pasted object on this page, not shown here)"}},
  "data": [
    {"smiles": "CC1=CC(OC(=O)N2CCN(C(=O)COc3ccc(Br)cc3C)CC2)CC1=O", "note": "(stereo not shown) [4g]", "values": [
      {"measurement": "relative percentage of hydrolysis by ShHTL7S95C, source data average", "setting": "ShHTL7S95C", "result": 4.848, "unit": "%"}
    ]},
    {"smiles": "CC1=C[C@H](O/C=C2/C(=O)O[C@@H]3c4ccccc4C[C@H]23)OC1=O", "note": "(racemic) [rac-GR24, reference compound]", "values": [
      {"measurement": "Kd", "setting": "ShHTL7", "result": "0.92 ± 0.01", "unit": "µM"}
    ]},
    {"smiles": "CC1=CC(OC(=O)N2CCN(C(=O)COc3ccc(Br)cc3C)CC2)OC1=O", "note": "(stereo not shown) [4a]", "values": [
      {"measurement": "induction of AtD14-AtMAX2 interaction (Y2H)", "setting": "AtD14-AtMAX2 interaction", "result": "did not promote the interaction"}
    ]},
    {"smiles": "CC1=C[C@H](OC(=O)N2CCN(C(=O)COc3ccc(Br)cc3C)CC2)OC1=O", "note": "[(S)-4a]", "values": [
      {"measurement": "relative percentage of hydrolysis by ShHTL7H246A, source data average", "setting": "ShHTL7H246A", "result": 0.5315, "unit": "%"}
    ]}
  ]
}
